Measured values taken from patent US12612416B2, “Modulators of cystic fibrosis transmembrane conductance regulator” (VERTEX PHARMACEUTICALS INCORPORATED, priority 2020, dated 2026).
Like-named read-outs stand apart in the source and are kept apart here.

Tests used:
[1] = target: T1, CFTR-mediated short-circuit current in F508del/MF-HBE cells (Homo sapiens, UniProt P13569, DEL508-508); test: HBE assay: Ussing chamber assay of CFTR-mediated short-circuit currents; type: cell-based; settings: 20% human serum; for HBE Activity at 10 μM: single fixed concentration of 10 μM in combination with 1 μM Ivacaftor; for HBE Activity at 10 μM / EC50: 18-24 hours; for HBE Max. activity / EC50: F508del/MF-HBE; for HBE Max. activity: in combination with 1 μM Ivacaftor, compared to known Vertex corrector with 18 μM Tezacaftor and 1 μM Ivacaftor; for EC50: range of concentrations in combination with 1 μM Ivacaftor
T1 construct: endogenous in cells; host or cells: primary human bronchial epithelial cells from CF subjects (F508del/MF)
Procedure: Ussing chamber experiments were performed using human bronchial epithelial (HBE) cells derived from CF subjects heterozygous for F508del and a minimal function CFTR mutation (F508del/MF-HBE) and cultured as previously described (Neuberger T, Burton B, Clark H, Van Goor F Methods Mol Biol 2011:741:39-54). After four days the apical media was removed, and the cells were grown at an air liquid interface for >14 days prior to use.
To isolate the CFTR-mediated short-circuit (ISC) current, F508del/MF-HBE grown on Costar® Snapwell™ cell culture inserts were mounted in an Ussing chamber and the transepithelial ISC was measured under voltage-clamp recording conditions (Vhold=0 mV) at 37° C. The basolateral solution contained (in mM) 145 NaCl, 0.83K2HPO4, 3.3 KH2PO4, 1.2 MgCl2, 1.2 CaCl2), 10 Glucose, 10 HEPES (pH adjusted to 7.4 with NaOH) and the apical solution contained (in mM) 145 NaGluconate, 1.2 MgCl2, 1.2 CaCl2), 10 glucose, 10 HEPES (pH adjusted to 7.4 with NaOH) and 30 μM amiloride to block the epithelial sodium channel. Forskolin (20 μM) was added to the apical surface to activate CFTR, followed by apical addition of a CFTR inhibitor cocktail consisting of BPO, GlyH-101, and CFTR inhibitor 172 (each at 20 μM final assay concentration) to specifically isolate CFTR currents. The CFTR-mediated ISC (μA/cm^2) for each condition was determined from the peak forskolin response to the steady-state current following inhibition.
The activity of the CFTR corrector compounds on the CFTR-mediated ISC was determined in Ussing chamber studies as described above. The F508del/MF-HBE cell cultures were either incubated with the corrector compounds at a range of concentrations in combination with 1 μM Ivacaftor or were incubated with the corrector compounds at a single fixed concentration of 10 μM in combination with 1 μM Ivacaftor for 18-24 hours at 37° C. and in the presence of 20% human serum. The concentration of corrector compounds with 1 μM Ivacaftor during the 18-24 hours incubations was kept constant throughout the Ussing chamber measurement of the CFTR-mediated ISC to ensure compounds were present throughout the entire experiment.

[2] = amide bond, DMF
[3] = target: CFTR-mediated chloride transport in human intestinal epithelial enteroid cells (Homo sapiens, UniProt P13569); test: Membrane potential dye, Enteroid Assay A; type: cell-based
Procedure: Base medium (ADF+++) consisted of Advanced DMEM/Ham's F12, 2 mM Glutamax, 10 mM HEPES, […] penicillin/streptomycin.
Intestinal enteroid maintenance medium (IEMM) consisted of ADF+++, 1×B27 supplement, 1×N2 supplement, 1.25 mM N-acetyl cysteine, 10 mM Nicotinamide, 50 ng/mL hEGF, 10 nM Gastrin, 1 μg/mL hR-spondin-1, 100 ng/mL hNoggin, TGF-b type 1 inhibitor A-83-01, 100 μg/mL Primocin, 10 μM P38 MAPK inhibitor SB202190.
Bath 1 Buffer consisted of 1 mM MgCl2, 160 mM NaCl, 4.5 mM KCl, 10 mM HEPES, 10 mM Glucose, 2 mM CaCl2).
Chloride Free Buffer consisted of 1 mM Magnesium Gluconate, 2 mM Calcium Gluconate, 4.5 mM Potassium Gluconate, 160 mM Sodium Gluconate, 10 mM HEPES, 10 mM Glucose.
BathI Dye Solution consisted of Bath 1 Buffer, 0.04% Pluronic F127, 20 μM Methyl Oxonol, 30 μM CaCCinh-A01, 30 μM Chicago Sky Blue.
Chloride Free Dye Solution consisted of Chloride Free Buffer, 0.04% Pluronic F127, 20 μM Methyl Oxonol, 30 μM CaCCinh-A01, 30 μM Chicago Sky Blue.
Chloride Free Dye Stimulation Solution consisted of Chloride Free Dye Solution, 10 μM forskolin, 100 μM IBMX, and 300 nM Compound III.
Human intestinal epithelial enteroid cells were obtained from the Hubrecht Institute for Developmental Biology and Stem Cell Research, Utrecht, The Netherlands and expanded in T-Flasks as previously described (Dekkers J F, Wiegerinck C L, de Jonge H R, Bronsveld I, Janssens H M, de Winter-de Groot K M, Brandsma A M, de Jong N W M, Bijvelds M J C, Scholte B J, Nieuwenhuis E E S, van den Brink S, Clevers H, van der Ent C K, Middendorp S and M Beekman J M. A functional CFTR assay using primary cystic fibrosis intestinal organoids. Nat Med. 2013 July; 19(7):939-45.).
Cells were recovered in cell recovery solution, collected by centrifugation at 650 rpm for 5 minutes at 4° C., resuspended in TrypLE and incubated for 5 minutes at 37° C. Cells were then collected by centrifugation at 650 rpm for 5 minutes at 4° C. and resuspended in IEMM containing 10 μM ROCK inhibitor (RI). The cell suspension was passed through a 40 μm cell strainer and resuspended at 1×10^6 cells/mL in IEMM containing 10 μM RI. Cells were seeded at 5000 cells/well into multi-well plates and incubated for overnight at 37° C., 95% humidity and 5% CO2 prior to assay.
Enteroid cells were incubated with test compound in IEMM for 18-24 hours at 37° C., 95% humidity and 5% C02. […] Briefly, cells were washed 5 times in Bath 1 Buffer. Bath 1 Dye Solution was added, and the cells were incubated for 25 minutes at room temperature. Following dye incubation, cells were washed 3 times in Chloride Free Dye Solution. Chloride transport was initiated by addition of Chloride Free Dye Stimulation Solution and the fluorescence signal was read for 15 minutes. […] Chloride transport was then expressed as a percentage of the chloride transport following treatment with 3 μM (S)—N-((6-aminopyridin-2-yl)sulfonyl)-6-(3-fluoro-5-isobutoxyphenyl)-2-(2,2,4-trimethylpyrrolidin-1-yl)nicotinamide, 3 μM (R)-1-(2,2-difluorobenzo[d][1,3]dioxol-5-yl)-N-(1-(2,3-dihydroxypropyl)-6-fluoro-2-(1-hydroxy-2-methylpropan-2-yl)-1H-indol-5-yl)cyclopropanecarboxamide and 300 nM acute N-[2,4-bis(1,1-dimethylethyl)-5-hydroxyphenyl]-1,4-dihydro-4-oxoquinoline-3-carboxamide triple combination control (% Activity).

T1 sequence (P13569 with tags, fused parts or gaps DEL508-508): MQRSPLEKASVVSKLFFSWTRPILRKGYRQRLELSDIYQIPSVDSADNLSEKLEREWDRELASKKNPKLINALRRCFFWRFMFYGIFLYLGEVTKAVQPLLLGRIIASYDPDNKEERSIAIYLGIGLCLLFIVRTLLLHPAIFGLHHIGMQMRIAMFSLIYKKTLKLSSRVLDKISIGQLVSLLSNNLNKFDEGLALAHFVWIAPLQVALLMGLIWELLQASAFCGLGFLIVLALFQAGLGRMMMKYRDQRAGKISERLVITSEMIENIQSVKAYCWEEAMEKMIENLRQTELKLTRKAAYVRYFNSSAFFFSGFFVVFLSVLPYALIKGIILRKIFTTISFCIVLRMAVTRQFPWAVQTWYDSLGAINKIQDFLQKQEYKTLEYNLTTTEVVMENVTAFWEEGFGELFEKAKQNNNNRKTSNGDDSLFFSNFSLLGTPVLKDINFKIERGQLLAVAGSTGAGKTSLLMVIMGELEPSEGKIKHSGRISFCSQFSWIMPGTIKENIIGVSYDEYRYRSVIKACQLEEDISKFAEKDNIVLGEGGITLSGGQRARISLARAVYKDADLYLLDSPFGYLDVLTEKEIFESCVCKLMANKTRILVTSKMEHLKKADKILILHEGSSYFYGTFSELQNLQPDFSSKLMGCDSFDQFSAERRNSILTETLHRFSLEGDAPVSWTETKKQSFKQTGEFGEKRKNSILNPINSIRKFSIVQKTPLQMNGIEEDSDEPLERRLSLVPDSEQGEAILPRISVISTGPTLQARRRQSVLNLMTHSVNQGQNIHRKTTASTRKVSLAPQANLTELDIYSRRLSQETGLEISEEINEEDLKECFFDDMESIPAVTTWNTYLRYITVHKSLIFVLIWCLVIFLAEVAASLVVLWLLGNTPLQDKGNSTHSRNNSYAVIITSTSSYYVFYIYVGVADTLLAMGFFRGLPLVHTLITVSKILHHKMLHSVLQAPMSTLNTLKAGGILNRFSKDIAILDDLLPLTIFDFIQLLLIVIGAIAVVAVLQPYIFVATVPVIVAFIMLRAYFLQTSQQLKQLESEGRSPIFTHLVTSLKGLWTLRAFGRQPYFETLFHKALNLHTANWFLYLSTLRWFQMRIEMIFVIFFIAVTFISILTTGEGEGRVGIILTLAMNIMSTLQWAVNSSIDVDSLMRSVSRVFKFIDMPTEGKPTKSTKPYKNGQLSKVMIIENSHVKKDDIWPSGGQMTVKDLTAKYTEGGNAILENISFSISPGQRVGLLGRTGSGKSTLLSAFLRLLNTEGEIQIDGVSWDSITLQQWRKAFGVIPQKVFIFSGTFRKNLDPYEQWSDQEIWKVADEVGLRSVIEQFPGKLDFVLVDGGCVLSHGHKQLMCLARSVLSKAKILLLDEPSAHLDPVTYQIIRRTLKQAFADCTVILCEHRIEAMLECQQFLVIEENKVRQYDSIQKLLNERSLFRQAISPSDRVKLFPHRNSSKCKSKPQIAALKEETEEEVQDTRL
Sequence of CFTR-mediated chloride transport in human intestinal epithelial enteroid cells (P13569 with tags, fused parts or gaps DEL508-508): as above

With `Cc1cccc(C)c1-c1cc2nc(n1)NS(=O)(=O)c1cccc(c1)C(=O)N([C@H]1CC3(C1)C[C@H](C(C)(C)O)C3)[C@H](CC(C)(C)C)CC2` (single isomer, unassigned) [Compound 65] the “HBE Activity at 10 μM” value [1] was “+++ (+++ is >60%)”.
For `Cc1cccc(C)c1-c1cc2nc(n1)NS(=O)(=O)c1cccc(c1)C(=O)N([C@H]1CC3(C1)C[C@H](C(C)(C)O)C3)[C@H](CC(C)(C)C)CC2` (single isomer, unassigned) [Compound 66], the “HBE Activity at 10 μM” value [1] was “+++ (+++ is >60%)”.
For `Cc1cccc(C)c1-c1cc2nc(n1)NS(=O)(=O)c1cccc(c1)C(=O)NCC1(CCCCC1)CN2` [Compound 40, 6-(2,6-Dimethylphenyl)-2,2-dioxo-spiro[2 λ6-thia-3,5,9,13,20-pentazatricyclo[13.3.1.14,8]icosa-1(19),4(20),5,7,15,17-hexaene-11,1′-cyclohexane]-14-one], the ring closure, yield after HPLC ([2]; from Cc1cccc(C)c1-c1cc(NCC2(CN)CCCCC2)nc(NS(=O)(=O)c2cccc(C(=O)O)c2)n1, 14-membered ring, HATU/Et3N, 58.9 mM, 0.5 h) was 33%, the “Ent. A Max Activity” value ([3]; % of chloride transport of triple combination control: 3 μM (S)-N-((6-aminopyridin-2-yl)sulfonyl)-6-(3-fluoro-5-isobutoxyphenyl)-2-(2,2,4-trimethylpyrrolidin-1-yl)nicotinamide, 3 μM tezacaftor, 300 nM acute ivacaftor) was “+ (+ is <30%)” and the EC50 ([3]; enteroid cells, 18-24 hours incubation, acute 10 μM forskolin and 300 nM ivacaftor, read-out: Ent. A EC50) was 1000 to 3000 nM.
With `Cc1cccc(C)c1-c1cc2nc(n1)NS(=O)(=O)c1cccc(c1)C(=O)N(Cc1ncc(OC(C)C)cn1)[C@H](CC(C)C)CC2` [Compound 58] the “HBE Max. activity” value [1] was “+++ (+++ is >60%)” and the EC50 [1] was < 1000 nM.
In the case of `Cc1cccc(C)c1-c1cc2nc(n1)NS(=O)(=O)c1cccc(c1)C(=O)N(Cc1ncc(OC3CCC3)cn1)[C@H](CC(C)C)CC2` [Compound 59], the “HBE Max. activity” value [1] is reported as “+++ (+++ is >60%)” and the EC50 [1] is reported as < 1000 nM.
For `Cc1cccc(C)c1-c1cc2nc(n1)NS(=O)(=O)c1cccc(c1)C(=O)N(Cc1nccc(N(C)C(C)C)n1)[C@H](CC(C)C)CC2` [Compound 60, (11S)-6-(2,6-dimethylphenyl)-11-isobutyl-12-[[4-[isopropyl(methyl)amino]pyrimidin-2-yl]methyl]-2,2-dioxo-2λ^6-thia-3,5,12,19-tetrazatricyclo[12.3.1.14,8]nonadeca-1(18),4(19),5,7,14,16-hexaen-13-one], the ring closure, yield after HPLC ([2]; from Cc1cccc(C)c1-c1cc(CC[C@@H](CC(C)C)NCc2nccc(N(C)C(C)C)n2)nc(NS(=O)(=O)c2cccc(C(=O)O)c2)n1, 13-membered ring, HATU/DIEA, 12.4 mM, 25.0 °C, 2.0 h) was 49%, the “HBE Max. activity” value [1] was “+++ (+++ is >60%)” and the EC50 [1] was < 1000 nM.
In the case of `Cc1cccc(C)c1-c1cc2nc(n1)NS(=O)(=O)c1cccc(c1)C(=O)N(Cc1ncc(OC(C)C)cn1)[C@H](CC(C)(C)C)CC2` [Compound 62, (11S)-6-(2,6-Dimethylphenyl)-11-(2,2-dimethylpropyl)-12-[(5-isopropoxypyrimidin-2-yl)methyl]-2,2-dioxo-2 λ6-thia-3,5,12,19-tetrazatricyclo[12.3.1.14,8]nonadeca-1(18),4(19),5,7,14,16-hexaen-13-one], the ring closure, yield after HPLC ([2]; from Cc1cccc(C)c1-c1cc(CC[C@@H](CC(C)(C)C)NCc2ncc(OC(C)C)cn2)nc(NS(=O)(=O)c2cccc(C(=O)O)c2)n1, 13-membered ring, CDMT/NMM, 47.5 mM, 18.0 h) is reported as 79%, the “HBE Max. activity” value [1] is reported as “+++ (+++ is >60%)” and the EC50 [1] is reported as < 1000 nM.
For `Cc1cccc(C)c1-c1cc2nc(n1)NS(=O)(=O)c1cccc(c1)C(=O)N(C1CC3(CC3)C1)[C@H](CC(C)(C)C)CC2` [Compound 63], the “HBE Activity at 10 μM” value [1] was “+++ (+++ is >60%)”.
With `Cc1cccc(C)c1-c1cc2nc(n1)NS(=O)(=O)c1cccc(c1)C(=O)N(Cc1ncc(OC3CCC3)cn1)[C@H](CC(C)(C)C)CC2` [Compound 64, (11S)-12-[[5-(Cyclobutoxy)pyrimidin-2-yl]methyl]-6-(2,6-dimethylphenyl)-11-(2,2-dimethylpropyl)-2,2-dioxo-2λ6-thia-3,5,12,19-tetrazatricyclo[12.3.1.14,8]nonadeca-1(18),4(19),5,7,14,16-hexaen-13-one] the ring closure, yield after HPLC ([2]; from Cc1cccc(C)c1-c1cc(CC[C@@H](CC(C)(C)C)NCc2ncc(OC3CCC3)cn2)nc(NS(=O)(=O)c2cccc(C(=O)O)c2)n1, 13-membered ring, CDMT/NMM, 44.1 mM, 17.0 h) was 73% and the “HBE Activity at 10 μM” value [1] was “+++ (+++ is >60%)”.
